From ChEMBL document CHEMBL3885881, “DrugMatrix”

Columns and labels:
Rattus norvegicus [1] = species: Rattus norvegicus; test: DrugMatrix - Regimen: Daily Repeat; format: toxicity, organism-based, Sprague-Dawley; design: regimen Daily Repeat, gender Male, age 6-8 weeks; settings: in vivo, po, 0 mg/kg, […], route oral GAVAGE, dose level Control, time 14 day, vehicle 100 % WATER
Rattus norvegicus [2] = species: Rattus norvegicus; format: toxicity, organism-based, Sprague-Dawley; settings: in vivo, po, 0 mg/kg, 24 h, route oral GAVAGE, dose level Control, time 1 day, vehicle 100 % WATER
Description: DrugMatrix - Regimen: Single

SMILES: c1ccncc1 [PYRIDINE]
- ABSOLUTE BASOPHIL (Rattus norvegicus [1]; tissue Blood): 0 CELLS/uL
- ABSOLUTE EOSINOPHIL (Rattus norvegicus [1]; tissue Blood): 117.17 CELLS/uL
- ABSOLUTE LYMPHOCYTE (Rattus norvegicus [1]; tissue Blood): 12774.17 CELLS/uL
- ABSOLUTE MONOCYTE (Rattus norvegicus [1]; tissue Blood): 419 CELLS/uL
- ABSOLUTE SEGMENTED NEUTROPHIL (Rattus norvegicus [1]; tissue Blood): 2139.67 CELLS/uL
- BASOPHIL (Rattus norvegicus [1]; tissue Blood): 0%
- EOSINOPHIL (Rattus norvegicus [1]; tissue Blood): 0.67%
- ERYTHROCYTE COUNT (Rattus norvegicus [1]; tissue Blood): 6.61 x10E6/uL
- HEMATOCRIT (Rattus norvegicus [1]; tissue Blood): 37.58%
- HEMOGLOBIN (Rattus norvegicus [1]; tissue Blood): 13.8 G/DL
- LEUKOCYTE COUNT (Rattus norvegicus [1]; tissue Blood): 15.45 x10E3/uL
- LYMPHOCYTE (Rattus norvegicus [1]; tissue Blood): 83%
- MEAN CORPUSCULAR HEMOGLOBIN (Rattus norvegicus [1]; tissue Blood): 20.87 pg
- MEAN CORPUSCULAR HEMOGLOBIN CONCENTRATION (Rattus norvegicus [1]; tissue Blood): 36.72 G/DL
- MEAN CORPUSCULAR VOLUME (Rattus norvegicus [1]; tissue Blood): 56.85 fL
- MONOCYTE (Rattus norvegicus [1]; tissue Blood): 2.67%
- NEUTROPHIL (Rattus norvegicus [1]; tissue Blood): 13.67%
- NUCLEATED RED BLOOD CELLS (Rattus norvegicus [1]; tissue Blood): 0 /100WBC
- PLATELET COUNT (Rattus norvegicus [1]; tissue Blood): 1108.33 x10E3/uL
- ALANINE AMINOTRANSFERASE (Rattus norvegicus [1]; tissue Plasma): 56.83 u/L
- ALBUMIN (Rattus norvegicus [1]; tissue Plasma): 4.18 G/DL
- ALKALINE PHOSPHATASE (Rattus norvegicus [1]; tissue Plasma): 354.33 u/L
- ASPARTATE AMINOTRANSFERASE (Rattus norvegicus [1]; tissue Plasma): 93.33 u/L
- BLOOD UREA NITROGEN (Rattus norvegicus [1]; tissue Plasma): 16.67 mg/dL
- CARBON DIOXIDE (Rattus norvegicus [1]; tissue Plasma): 27.83 mmol/L
- CHLORIDE (Rattus norvegicus [1]; tissue Plasma): 102.17 MEQ/L
- CHOLESTEROL (Rattus norvegicus [1]; tissue Plasma): 62.33 mg/dL
- CREATININE (Rattus norvegicus [1]; tissue Plasma): 0.2 mg/dL
- GLUCOSE (Rattus norvegicus [1]; tissue Plasma): 137 mg/dL
- LACTATE DEHYDROGENASE (Rattus norvegicus [1]; tissue Plasma): 407 u/L
- LIPASE (Rattus norvegicus [1]; tissue Plasma): 10.83 u/L
- PHOSPHORUS (Rattus norvegicus [1]; tissue Plasma): 11.45 mg/dL
- POTASSIUM (Rattus norvegicus [1]; tissue Plasma): 6.51 MEQ/L
- SODIUM (Rattus norvegicus [1]; tissue Plasma): 145.57 MEQ/L
- TOTAL BILIRUBIN (Rattus norvegicus [1]; tissue Plasma): 0.2 mg/dL
- TOTAL PROTEIN (Rattus norvegicus [1]; tissue Plasma): 6.3 G/DL
- URIC ACID (Rattus norvegicus [1]; tissue Plasma): 1.93 mg/dL
- ABSOLUTE EOSINOPHIL (Rattus norvegicus [2]; tissue Blood): 91.83 CELLS/uL
- ABSOLUTE LYMPHOCYTE (Rattus norvegicus [2]; tissue Blood): 13862.33 CELLS/uL
- ABSOLUTE MONOCYTE (Rattus norvegicus [2]; tissue Blood): 437.83 CELLS/uL
- ABSOLUTE SEGMENTED NEUTROPHIL (Rattus norvegicus [2]; tissue Blood): 1358 CELLS/uL
- BASOPHIL (Rattus norvegicus [2]; tissue Blood): 0%
- EOSINOPHIL (Rattus norvegicus [2]; tissue Blood): 0.5%
- ERYTHROCYTE COUNT (Rattus norvegicus [2]; tissue Blood): 5.12 x10E6/uL
- HEMATOCRIT (Rattus norvegicus [2]; tissue Blood): 31.77%
- HEMOGLOBIN (Rattus norvegicus [2]; tissue Blood): 11.8 G/DL
- LEUKOCYTE COUNT (Rattus norvegicus [2]; tissue Blood): 15.75 x10E3/uL
- LYMPHOCYTE (Rattus norvegicus [2]; tissue Blood): 88.33%
- MEAN CORPUSCULAR HEMOGLOBIN (Rattus norvegicus [2]; tissue Blood): 23.07 pg
- MEAN CORPUSCULAR HEMOGLOBIN CONCENTRATION (Rattus norvegicus [2]; tissue Blood): 37.17 G/DL
- MEAN CORPUSCULAR VOLUME (Rattus norvegicus [2]; tissue Blood): 62.15 fL
- MONOCYTE (Rattus norvegicus [2]; tissue Blood): 2.67%
- NEUTROPHIL (Rattus norvegicus [2]; tissue Blood): 8.5%
- NUCLEATED RED BLOOD CELLS (Rattus norvegicus [2]; tissue Blood): 0 /100WBC
- PLATELET COUNT (Rattus norvegicus [2]; tissue Blood): 1113.83 x10E3/uL
- ALANINE AMINOTRANSFERASE (Rattus norvegicus [2]; tissue Plasma): 45.5 u/L
- ALBUMIN (Rattus norvegicus [2]; tissue Plasma): 4.07 G/DL
- ALKALINE PHOSPHATASE (Rattus norvegicus [2]; tissue Plasma): 343.83 u/L
- ASPARTATE AMINOTRANSFERASE (Rattus norvegicus [2]; tissue Plasma): 70.67 u/L
- BLOOD UREA NITROGEN (Rattus norvegicus [2]; tissue Plasma): 13 mg/dL
- CARBON DIOXIDE (Rattus norvegicus [2]; tissue Plasma): 33 mmol/L
- CHLORIDE (Rattus norvegicus [2]; tissue Plasma): 100.33 MEQ/L
- CHOLESTEROL (Rattus norvegicus [2]; tissue Plasma): 76.67 mg/dL
- CREATININE (Rattus norvegicus [2]; tissue Plasma): 0.12 mg/dL
- GLUCOSE (Rattus norvegicus [2]; tissue Plasma): 148.67 mg/dL
- LACTATE DEHYDROGENASE (Rattus norvegicus [2]; tissue Plasma): 116.67 u/L
- LIPASE (Rattus norvegicus [2]; tissue Plasma): 8 u/L
- PHOSPHORUS (Rattus norvegicus [2]; tissue Plasma): 12.58 mg/dL
- POTASSIUM (Rattus norvegicus [2]; tissue Plasma): 6.33 MEQ/L
- SODIUM (Rattus norvegicus [2]; tissue Plasma): 142.88 MEQ/L
- TOTAL BILIRUBIN (Rattus norvegicus [2]; tissue Plasma): 0.18 mg/dL
- TOTAL PROTEIN (Rattus norvegicus [2]; tissue Plasma): 5.77 G/DL
- URIC ACID (Rattus norvegicus [2]; tissue Plasma): 1.27 mg/dL
